Results as given in PMC5618418, “Pharmacokinetics of Jaspine B and Enhancement of Intestinal Absorption of Jaspine B in the Presence of Bile Acid in Rats” (Marine Drugs, 2017).
Like-named read-outs stand apart in the source and are kept apart here.

What was measured:
[1] = Cumulative urinary and fecal excretion in metabolic cage; format: in vivo; conditions: rat, IV 10 mg/kg, 72 h; for dose excreted: feces and urine combined, read-out: recovery of unaltered Jaspine B from combined feces and urine
Procedure: In the experiment using metabolic cages, feces were collected at 12, 24, 48, and 72 h following the IV administration of Jaspine B (10 mg/kg). Aliquots of 50 μL of urine and 10% feces homogenates were stored at −80 °C until the analysis.
Aliquots (50 μL) of plasma, bile, feces homogenates, and urine samples were added to 250 μL of acetonitrile containing 0.5 ng/mL of berberine (an internal standard). After vortexing for 10 min and centrifugation at 13,200 rpm for 5 min, an aliquot (2 μL) of the supernatant was injected directly into the LC-MS/MS system. For the analysis of plasma concentration, the standard curve range was 25–5000 ng/mL and the concentrations of quality control (QC) samples were 75, 500, and 3000 ng/mL, as described previously. Concentrations of Jaspine B in urine, bile, and feces homogenates were 5–300 ng/mL, 20–5000 ng/mL, and 20–5000 ng/mL, respectively. The concentrations of QC samples were 15, 100, and 300 ng/mL for urine samples and 75, 500, and 3000 ng/mL for bile and feces homogenates.

[2] = Pharmacokinetics after oral administration with or without taurocholate in control and bile-depleted rats; format: in vivo; conditions: male, rat, plasma, 30 mg/kg; for bioavailability: oral 30 mg/kg vs IV 10 mg/kg, read-out: BA (oral bioavailability); for AUC(0-inf) / MRT / Tmax / half-life / AUC(0-t) / Cmax: oral 30 mg/kg; for AUC(0-t): read-out: AUC12h
Procedure: Male SD rats (aged 8–9 weeks, weighing 250–300 g) were obtained from Samtako Bio Korea, Inc. (Osan, Korea). The rats were acclimatized for 1 week in a temperature-controlled room (23 ± 2 °C) with a 12-h illumination cycle. Food and water were given ad libitum. All animal procedures were approved by the Animal Care and Use Committee of the Kyungpook National University (No. 2015-0064). The rats were fasted for at least 12 h before the oral administration of drugs.
The femoral artery, femoral vein, and bile duct were cannulated with polyethylene tubes (PE-50 and PE-10; Jungdo, Seoul, Korea) under light anesthesia with isoflurane.
For oral dosing, Jaspine B was dissolved in a vehicle containing DMSO: PEG400: saline (2:4:4, v/v/v) and was administered by oral gavages at a single dose of 30 mg/kg of Jaspine B concomitantly with or without 60 mg/kg TC (vehicle volume, 3 mL/kg) to the control and bile-depleted rats. Bile depletion was accomplished with 4 h drainage of bile through the bile cannula, which was cannulated to the bile duct using PE-10 tubing.
Blood samples (approximately 250 μL each) were collected from the femoral artery at 0, 0.25, 0.5, 1, 1.5, 2, 4, 8, and 12 h following the oral administration of Jaspine B. After centrifugation of blood samples at 13,200 rpm for 10 min, plasma samples (50 μL) were collected and stored at −80 °C until the analysis by liquid chromatography tandem-mass spectrometry (LC-MS/MS). Aliquots (50 μL) of plasma samples were added to 250 μL of acetonitrile containing 0.5 ng/mL of berberine (an internal standard). After vortexing for 10 min and centrifugation at 13,200 rpm for 5 min, an aliquot (10 μL) of the supernatant was injected directly into the LC-MS/MS system. The standard curve range was 5–2000 ng/mL and the concentrations of quality control (QC) samples were 60, 300, and 2000 ng/mL.
Pharmacokinetic parameters were determined using a non-compartmental analysis (WinNonlin® 2.0; Pharsight, Mountain View, CA, USA). Maximum plasma concentration (Cmax) and time to reach Cmax (Tmax) values were obtained from plasma concentration-time curves. The area under the plasma concentration–time curve from zero to infinity (AUC) was calculated using the trapezoidal-extrapolation method. For extrapolation, the area from the last data point to infinity was estimated by dividing the […].
However, in the case of bile-depleted rats, AUC∞ and T1/2 were not calculated because the elimination rate constant could not be obtained.

[3] = Apparent partition coefficient between n-octanol and PBS; format: physicochemical; conditions: n-octanol/PBS pH 7.4, 10 mM TC vs absence of TC, 25 °C
Procedure: The effect of TC on the apparent partition coefficients (APC) of Jaspine B between aqueous and organic phases was investigated. n-Octanol and phosphate-buffered saline (PBS, pH 7.4) were used as the organic and aqueous phases, respectively, in the partition study. n-Octanol and PBS were saturated with respect to one another prior to use. An equal volume of n-octanol was added to PBS (5 mL each) containing Jaspine B (10 mM) and TC (0, 0.1, 1, 10, or 100 mM) in a screw-capped test tube, and the mixture was vortexed vigorously for 5 min followed by shaking for 2 h at 25 °C in a temperature-controlled water bath. After standing for 1 h at 25 °C in the water bath, the mixture was separated into two phases by centrifugation at 3000 rpm for 10 min. The concentration of Jaspine B in a 50-μL aliquot of aqueous and organic phase was measured. Briefly, 50 μL of sample was added to 250 μL of acetonitrile containing 0.5 ng/mL of berberine. After vortexing for 10 min and centrifugation at 13,200 rpm for 5 min, an aliquot (2 μL) of the supernatant was injected directly into the LC-MS/MS system. The APC was calculated from the concentration ratio of each compound between the octanol and PBS phases.

[4] = SD, bile depletion + TC 60 mg/kg

- dose excreted ([1]; SD (Sprague-Dawley)): 6.3%
- dose excreted ([1]; Sprague-Dawley (SD)): ~6.3%
- dose recovered from feces ([1]; metabolic cage): 4.7 ± 0.8%
- dose recovered from urine ([1]; metabolic cage): 1.6 ± 0.7%
- bioavailability ([2]; SD, bile-depleted rats, from AUC12h): 1.6%
- bioavailability ([2]; SD, control rats): 6.2%
- MRT ([2]; SD, bile-depleted rats): 6.1 ± 0.3 h
- Tmax ([2]; SD, bile-depleted rats): 9.3 ± 2.3 h
- AUC(0-t) ([2]; SD, bile-depleted rats): 80.3 ± 42.7 ng·h/mL
- AUC(0-inf) ([2]; SD, control rats): 314 ± 76.1 ng·h/mL
- MRT ([2]; SD, control rats): 4.9 ± 0.4 h
- Tmax ([2]; SD, control rats): 2.5 ± 1.3 h
- half-life ([2]; SD, control rats): 5.5 ± 1.1 h
- AUC(0-t) ([2]; SD, control rats): 241 ± 57.8 ng·h/mL
- Cmax ([2]; Sprague-Dawley, bile-depleted rats): 8.5 ± 2.8 ng/mL
- Cmax ([2]; Sprague-Dawley, control rats): 36.3 ± 11.3 ng/mL
- increase of partition coefficient [3]: 10 fold
Compound: CCCCCCCCCCCCCC[C@@H]1OC[C@H](N)[C@@H]1O [Jaspine B]
- bioavailability [2, 4]: 23.5%
- bioavailability ([2]; SD, control + TC 60 mg/kg): 41.2%
- AUC(0-inf) [2, 4]: 1200 ± 254 ng·h/mL
- MRT [2, 4]: 4.9 ± 0.5 h
- Tmax [2, 4]: 1 ± 0.5 h
- half-life [2, 4]: 7.2 ± 1.5 h
- AUC(0-t) [2, 4]: 828 ± 180 ng·h/mL
- AUC(0-inf) ([2]; SD, control + TC 60 mg/kg): 2100 ± 419 ng·h/mL
- Cmax ([2]; SD, control + TC 60 mg/kg): 174 ± 13 ng/mL
- MRT ([2]; SD, control + TC 60 mg/kg): 5.5 ± 0.03 h
- Tmax ([2]; SD, control + TC 60 mg/kg): 3.3 ± 2.3 h
- half-life ([2]; SD, control + TC 60 mg/kg): 6.4 ± 2.8 h
- AUC(0-t) ([2]; SD, control + TC 60 mg/kg): 1406 ± 4.3 ng·h/mL
- Cmax ([2]; Sprague-Dawley, bile depletion + TC 60 mg/kg): 163 ± 28.4 ng/mL
